Several values for one entry are separate records, joined by “and”; a condition that tells them apart may be missing. Equal entries are not always repeated.
Assay: molar heat capacity at constant pressure
Conditions: 101.33 kPa, Liquid, Small sample (50 mg) DSC

OCC1CCCCC1 [cyclohexylmethanol]
Conditions | molar heat capacity at constant pressure
258.09 K | 199.13 J/K/mol and 198.88 J/K/mol
263.2 K | 202.87 J/K/mol and 202.54 J/K/mol
268.3 K | 207.03 J/K/mol and 206.61 J/K/mol
273.41 K | 211.52 J/K/mol and 210.94 J/K/mol
278.51 K | 215.68 J/K/mol and 215.18 J/K/mol
283.62 K | 220.83 J/K/mol and 219.83 J/K/mol
288.72 K | 225.32 J/K/mol and 224.74 J/K/mol
293.83 K | 230.56 J/K/mol and 229.98 J/K/mol
298.93 K | 236.46 J/K/mol and 235.55 J/K/mol
304.04 K | 242.28 J/K/mol and 241.62 J/K/mol
309.14 K | 247.94 J/K/mol and 247.36 J/K/mol
314.25 K | 254.26 J/K/mol and 253.34 J/K/mol
319.35 K | 260.24 J/K/mol and 259.49 J/K/mol
324.46 K | 265.98 J/K/mol and 265.56 J/K/mol
329.57 K | 271.38 J/K/mol and 270.55 J/K/mol
334.67 K | 276.54 J/K/mol and 275.87 J/K/mol
339.77 K | 281.78 J/K/mol and 280.86 J/K/mol
344.88 K | 287.35 J/K/mol and 286.52 J/K/mol
349.98 K | 292.34 J/K/mol and 291.51 J/K/mol
355.09 K | 296.83 J/K/mol and 296.33 J/K/mol

OCCCC1CCCCC1 [3-cyclohexyl-1-propanol]
Conditions | molar heat capacity at constant pressure
258.09 K | 254.42 J/K/mol and 254.84 J/K/mol
263.2 K | 258.91 J/K/mol and 258.66 J/K/mol
268.3 K | 263.07 J/K/mol and 262.65 J/K/mol
273.41 K | 267.64 J/K/mol and 267.48 J/K/mol
278.51 K | 272.22 J/K/mol and 271.97 J/K/mol
283.62 K | 277.37 J/K/mol and 277.12 J/K/mol
288.72 K | 282.28 J/K/mol
293.83 K | 288.01 J/K/mol and 287.76 J/K/mol
298.93 K | 293.5 J/K/mol and 293.33 J/K/mol
304.04 K | 299.74 J/K/mol
309.14 K | 305.72 J/K/mol and 305.64 J/K/mol
314.25 K | 311.63 J/K/mol and 311.54 J/K/mol
319.35 K | 317.61 J/K/mol and 317.7 J/K/mol
324.46 K | 323.6 J/K/mol and 323.85 J/K/mol
329.56 K | 330.5 J/K/mol and 330 J/K/mol
334.67 K | 335.9 J/K/mol and 336.24 J/K/mol
339.77 K | 342.31 J/K/mol and 342.39 J/K/mol
344.88 K | 348.46 J/K/mol and 348.63 J/K/mol
349.98 K | 354.28 J/K/mol and 354.61 J/K/mol
355.09 K | 360.35 J/K/mol and 360.02 J/K/mol

C=CCO [2-propenol]
Conditions | molar heat capacity at constant pressure
273.41 K | 134.94 J/K/mol and 134.61 J/K/mol
278.52 K | 137.19 J/K/mol and 137.35 J/K/mol
283.62 K | 139.43 J/K/mol and 139.18 J/K/mol
288.72 K | 141.93 J/K/mol and 141.68 J/K/mol
293.83 K | 144.34 J/K/mol and 144.17 J/K/mol
298.93 K | 146.67 J/K/mol and 146.5 J/K/mol
304.04 K | 149.16 J/K/mol and 149.08 J/K/mol
309.14 K | 152.32 J/K/mol and 151.82 J/K/mol
314.25 K | 154.82 J/K/mol and 154.4 J/K/mol
319.35 K | 157.23 J/K/mol and 157.06 J/K/mol
324.46 K | 160.14 J/K/mol and 160.3 J/K/mol

OCCC1CCCCC1 [2-cyclohexylethanol]
Conditions | molar heat capacity at constant pressure
253.5 K | 222 J/K/mol and 223.33 J/K/mol
256.05 K | 226.07 J/K/mol and 226.32 J/K/mol
260.65 K | 229.4 J/K/mol and 229.73 J/K/mol
265.75 K | 233.72 J/K/mol and 233.97 J/K/mol
270.86 K | 238.29 J/K/mol and 238.21 J/K/mol
275.96 K | 242.12 J/K/mol and 242.2 J/K/mol
281.07 K | 246.19 J/K/mol and 246.44 J/K/mol
286.17 K | 251.6 J/K/mol and 251.26 J/K/mol
291.28 K | 256.67 J/K/mol and 256.42 J/K/mol
296.38 K | 261.91 J/K/mol and 262.07 J/K/mol
301.48 K | 267.56 J/K/mol and 266.98 J/K/mol
306.59 K | 273.13 J/K/mol and 273.21 J/K/mol
311.7 K | 278.7 J/K/mol and 279.03 J/K/mol
316.81 K | 284.35 J/K/mol
321.91 K | 290.17 J/K/mol and 289.93 J/K/mol
327.01 K | 295.5 J/K/mol and 295.58 J/K/mol
332.12 K | 301.15 J/K/mol and 300.82 J/K/mol
337.22 K | 307.39 J/K/mol and 306.64 J/K/mol
342.33 K | 313.87 J/K/mol and 312.71 J/K/mol
347.43 K | 318.61 J/K/mol and 317.95 J/K/mol
352.54 K | 323.27 J/K/mol and 322.6 J/K/mol

— the NIST ThermoML archive (doi:10.1016/j.tca.2014.03.043)
